Experimental data: patent US8648076B2, “Cysteine protease inhibitors and their therapeutic applications” (Hybrigenics SA, priority 2005, dated 2014)

Key:
[1] = target: T1, Caspase 3 (Homo sapiens, UniProt P42574); assay: Caspase 3 activity assay; type: biochemical; settings: 500 nM Ac-DEVD-AMC, 3.2 nM enzyme, 30 min pre-incubation at 25° C., 60 min at 37° C.; sigmoidal fit; AF: Autofluorescent; read-out: Casp3 (inhibition of cysteine protease activity)
T1 sequence (P42574 29-175 limits assumed): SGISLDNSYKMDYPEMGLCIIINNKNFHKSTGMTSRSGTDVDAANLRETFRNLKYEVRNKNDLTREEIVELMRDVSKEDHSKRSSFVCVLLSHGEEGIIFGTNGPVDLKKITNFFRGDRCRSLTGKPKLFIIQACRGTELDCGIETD
T1 sequence (P42574 176-277 limits assumed): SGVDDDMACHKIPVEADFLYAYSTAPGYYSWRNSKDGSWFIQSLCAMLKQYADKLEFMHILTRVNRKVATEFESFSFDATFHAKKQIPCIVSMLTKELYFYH
Description: Compounds stocks (100 mM) were stored at −20° C. in DMSO. […] Reactions were performed as duplicates in Black LJL 96 well plates (HE microplates; Molecular Devices; 20 μl final reaction volume). The substrate concentration for caspase 3 specificity assay was 500 nM (Ac-DEVD-AMC; Promega). […] The concentrations were determined in order to perform specificity assays under initial velocities at fixed substrate concentration. Compounds were pre-incubated with enzymes for 30 minutes at 25° C. Reactions were initiated by addition of substrate to the plates containing the enzymes (+/−compounds) diluted in assay buffer. Reactions were incubated for 60 minutes at 37° C. Reactions were stopped by adding acetic acid (100 mM final). Readings were performed on a Pherastar Fluorescent Reader (BMG). δ Emission 380 nm; δ Excitation=460 nm. Data (mean values+/− standard deviation) were analyzed as % of control (no compound) and plotted as percentage versus the Log of the compound concentration using GraphPad (Prism). Data were fitted to a sigmoidal model (variable slope).

[2] = target: T2, USP8 (Homo sapiens, UniProt P40818); assay: USP8 activity assay; type: biochemical; settings: 400 nM Ub-AMC, pH8.8, 30 min pre-incubation at 25° C., 60 min at 37° C.; sigmoidal fit; AF: Autofluorescent; read-out: USP 8 (inhibition of cysteine protease activity)
T2 sequence (P40818 1-1118): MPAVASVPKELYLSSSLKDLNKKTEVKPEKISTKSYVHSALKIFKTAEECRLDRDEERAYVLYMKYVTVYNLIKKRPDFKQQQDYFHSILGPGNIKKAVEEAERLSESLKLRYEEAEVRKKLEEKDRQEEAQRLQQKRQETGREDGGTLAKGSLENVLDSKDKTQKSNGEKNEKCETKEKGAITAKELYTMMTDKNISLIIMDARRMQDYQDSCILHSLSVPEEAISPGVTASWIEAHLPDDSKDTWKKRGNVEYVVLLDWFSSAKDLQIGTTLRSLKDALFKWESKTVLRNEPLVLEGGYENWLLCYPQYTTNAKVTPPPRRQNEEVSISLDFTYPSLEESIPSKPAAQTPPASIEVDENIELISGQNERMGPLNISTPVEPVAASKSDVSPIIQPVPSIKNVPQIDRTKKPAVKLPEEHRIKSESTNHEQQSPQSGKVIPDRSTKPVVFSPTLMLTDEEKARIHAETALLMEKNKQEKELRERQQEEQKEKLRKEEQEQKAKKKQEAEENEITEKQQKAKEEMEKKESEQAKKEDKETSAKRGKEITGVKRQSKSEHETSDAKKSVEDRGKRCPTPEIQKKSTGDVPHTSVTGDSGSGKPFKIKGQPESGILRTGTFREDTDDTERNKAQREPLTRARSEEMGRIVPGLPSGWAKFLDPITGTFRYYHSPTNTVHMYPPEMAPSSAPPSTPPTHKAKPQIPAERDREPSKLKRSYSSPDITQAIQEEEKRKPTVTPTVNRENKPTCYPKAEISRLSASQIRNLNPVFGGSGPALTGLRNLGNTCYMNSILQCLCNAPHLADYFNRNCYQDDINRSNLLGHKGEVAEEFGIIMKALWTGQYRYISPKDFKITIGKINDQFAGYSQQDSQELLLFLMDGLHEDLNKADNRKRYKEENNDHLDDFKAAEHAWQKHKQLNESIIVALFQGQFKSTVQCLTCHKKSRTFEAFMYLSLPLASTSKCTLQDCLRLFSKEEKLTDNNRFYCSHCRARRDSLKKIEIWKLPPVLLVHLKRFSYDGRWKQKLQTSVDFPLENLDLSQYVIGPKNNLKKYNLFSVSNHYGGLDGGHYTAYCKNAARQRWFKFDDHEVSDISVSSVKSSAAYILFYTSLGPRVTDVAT

CCON=C1c2ccccc2-c2nc(C(N)=O)c(C#N)nc21 [Example 34b, 2-Cyano-9-ethoxyimino-9H-indeno[1,2-b]pyrazine-3-carboxylic acid amide]
IC50 [1]: 624 nM | IC50 [2]: 63 nM

CCOC(=O)CO/N=C1\c2ccccc2-c2nc(C(N)=O)c(C#N)nc21 [Example 37, (3-carbamoyl-2-cyano-indeno[1,2-b]pyrazin-9-ylideneaminooxy)-acetic acid ethyl ester]
IC50 [1]: 1160 nM | IC50 [2]: 200 nM

CCSc1nc2c(nc1C#N)C(=O)c1ccccc1-2 [Example 23, 3-ethylsulfanyl-9-oxo-9H-indeno[1,2-b]pyrazine-2-carbonitrile]
IC50 [1]: > 100000 nM | IC50 [2]: 46000 nM

N#Cc1nc2c(nc1C#N)C1(OCCO1)c1ccccc1-2 [Example 10]
IC50 [1]: > 100000 nM | IC50 [2]: 13000 nM

N#Cc1nc2c(nc1C#N)-c1ccccc1C2=NOCc1ccccc1 (mixture of isomers) [Example 13C, 9-Benzyloxyimino-9H-indeno[1,2-b]pyrazine-2,3-dicarbonitrile]
IC50 [1]: > 100000 nM | IC50 [2]: 850 nM

Cc1cccc2c1C(=O)c1nc(C#N)c(C#N)nc1-2 [Example 17c, 8-Methyl-9-oxo-9H-indeno[1,2-b]pyrazine-2,3-dicarbonitrile]
IC50 [1]: 13000 nM | IC50 [2]: 3100 nM

N#Cc1nc2c(nc1C#N)-c1ccccc1C2=NOCCOc1ccccc1 [Example 27a, 9-(2-Phenoxy-ethoxyimino)-9H-indeno[1,2-b]pyrazine-2,3-dicarbonitrile]
IC50 [1]: > 100000 nM | IC50 [2]: 2300 nM

COCCON=C1c2ccccc2-c2nc(C(N)=O)c(C#N)nc21 [Example 34c, 2-Cyano-9-(2-methoxy-ethoxyimino)-9H-indeno[1,2-b]pyrazine-3-carboxylic acid amide]
IC50 [1]: 1220 nM | IC50 [2]: 71 nM

CC(=O)O/N=C1\c2ccccc2-c2nc(C(N)=O)c(C#N)nc21 (single isomer, unassigned) [Example 35, 2-cyano-9-acetoxyimino-9H-indeno[1,2-b]pyrazine-3-carboxylic acid amide]
IC50 [1]: 120 nM | IC50 [2]: 27 nM

C=CCON=C1c2ccccc2-c2nc(C(N)=O)c(C#N)nc21 [Example 34a, 9-Allyloxyimino-2-cyano-9H-indeno[1,2-b]pyrazine-3-carboxylic acid amide]
IC50 [1]: 245 nM | IC50 [2]: 58 nM

N#Cc1nc2c(nc1C#N)-c1ccccc1C2=Nc1ccccc1 (mixture of isomers) [Example 14, 9-[phenylimino]-9H-indeno[1,2-b]pyrazine-2,3-dicarbonitrile]
IC50 [1]: 1300 nM | IC50 [2]: 350 nM

N#Cc1nc2sc3ccccc3c2nc1C#N [Example 19, benzo[4,5]thieno[2,3-b]pyrazine-2,3-dicarbonitrile]
IC50 [1]: > 100000 nM | IC50 [2]: > 100000 nM

N#Cc1nc2c(nc1Cl)-c1ccccc1C2=O [Example 9, 3-chloro-9-oxo-9H-indeno[1,2-b]pyrazine-2-carbonitrile]
IC50 [1]: > 100000 nM | IC50 [2]: 16200 nM

Cc1cccc2c1Cc1nc(C#N)c(C#N)nc1-2 [Example 16c, 8-Methyl-9H-indeno[1,2-b]pyrazine-2,3-dicarbonitrile]
IC50 [1]: > 100000 nM | IC50 [2]: > 100000 nM

CN(C)c1nc2c(nc1C#N)C(=O)c1ccccc1-2 [Example 4, 3-dimethylamino-9-oxo-9H-indeno[1,2-b]pyrazine-2-carbonitrile]
IC50 [1]: > 100000 nM | IC50 [2]: > 100000 nM

N#Cc1nc2c(nc1N1CCC(F)(F)CC1)-c1ccccc1C2=O [Example 8, 3-(4,4-difluoro-piperidin-1-yl)-9-oxo-9H-indeno[1,2-b]-pyrazine-2-carbonitrile]
IC50 [1]: > 100000 nM | IC50 [2]: > 100000 nM

COc1nc2c(nc1C#N)C(=O)c1ccccc1-2 [Example 3, 3-methoxy-9-oxo-9H-indeno[1,2-b]pyrazine-2-carbonitrile]
IC50 [1]: > 100000 nM | IC50 [2]: 31000 nM

C=CCON=C1c2ccc(Cl)cc2-c2nc(C#N)c(C#N)nc21 [Example 27c, 9-Allyloxyimino-6-chloro-9H-indeno[1,2-b]pyrazine-2,3-dicarbonitrile]
IC50 [1]: 2830 nM | IC50 [2]: 201 nM

N#Cc1nc2c(nc1C#N)-c1ccc(F)cc1C2=O [Example 17h, 7-Fluoro-9-oxo-9H-indeno[1,2-b]pyrazine-2,3-dicarbonitrile]
IC50 [1]: 1000 nM | IC50 [2]: 250 nM

N#Cc1nc2c(nc1O)-c1ccccc1C2=O [Example 6, 3-hydroxy-9-oxo-9H-indeno[1,2-b]pyrazine-2-carbonitrile]
IC50 [1]: 9300 nM | IC50 [2]: 8400 nM

N#CNc1nc2c(nc1C#N)C(=O)c1ccccc1-2 [Example 21, 2-cyano-9-oxo-9H-indeno[1,2-b]pyrazin-3-yl-cyanamide]
IC50 [1]: > 100000 nM | IC50 [2]: > 100000 nM

CCOC(=O)CNC(=O)CO/N=C1\c2ccccc2-c2nc(C(N)=O)c(C#N)nc21 [Example 40, [2-(3-carbamoyl-2-cyano-indeno[1,2-b]pyrazin-9-ylideneaminooxy)-acetylamino]-acetic acid ethyl ester]
IC50 [1]: 857 nM | IC50 [2]: 155 nM

N#Cc1nc2c(nc1C#N)-c1ccc(Cl)cc1C2=NOCCOc1ccccc1 [Example 27b, 7-Chloro-9-(2-phenoxy-ethoxyimino)-9H-indeno[1,2-b]pyrazine-2,3-dicarbonitrile]
IC50 [1]: > 100000 nM | IC50 [2]: 11300 nM

N#Cc1nc2c(nc1C#N)-c1ccccc1/C2=N/Oc1ccccc1 [Example 13e, 9-Phenoxyimino-9H-indeno[1,2-b]pyrazine-2,3-dicarbonitrile]
IC50 [1]: > 100000 nM | IC50 [2]: 240 nM

N#Cc1nc2c(nc1C#N)C(=O)c1ccccc1C2=O [Example 20, 5,10-dioxo-5,10-dihydro-benzo[g]quinoxaline-2,3-dicarbonitrile]
IC50 [1]: > 100000 nM | IC50 [2]: > 100000 nM

N#Cc1nc2c(nc1C(N)=O)-c1ccccc1/C2=N\OCC(=O)NCC(=O)O [Example 41, [2-(3-carbamoyl-2-cyano-indeno[1,2-b]pyrazin-9-ylideneaminooxy)-acetylamino]-acetic acid]
IC50 [1]: 1980 nM | IC50 [2]: 118 nM

N#Cc1nc2c(nc1CC(N)=O)-c1ccccc1C2=O [Example 26, 2-(2-cyano-9-oxo-9H-indeno[1,2-b]pyrazin-3-yl)-acetamide]
IC50 [2]: 11000 nM

C=CCON=C1c2ccccc2-c2nc(C#N)c(C#N)nc21 (mixture of isomers) [Example 13b, 9-(Allyloxyimino)-9H-indeno[1,2-b]pyrazine-2,3-dicarbonitrile]
IC50 [1]: > 100000 nM | IC50 [2]: 560 nM

CCON=C1c2ccccc2-c2nc(C#N)c(C#N)nc21 (mixture of isomers) [Example 13d, 9-Ethoxyimino-9H-indeno[1,2-b]pyrazine-2,3-dicarbonitrile]
IC50 [1]: > 100000 nM

CON=C1c2ccccc2-c2nc(C#N)c(C#N)nc21 [Example 13a, 9-(methoxyimino)-9H-indeno[1,2-b]pyrazine-2,3-dicarbonitrile]
IC50 [1]: 52000 nM | IC50 [2]: 980 nM

CCO/C(O)=C(\C#N)c1nc2c(nc1C#N)C(=O)c1ccccc1-2 [Example 22, 3-(1-cyano-2-ethoxy-2-hydroxy-vinyl)-9-oxo-9H-indeno[1,2-b]pyrazine-2-carbonitrile]
IC50 [1]: > 100000 nM
